Here are results for one molecule from PMC6281186, “Bioinformatics: A rational combine approach used for the identification and in-vitro activity evaluation of potent β-Glucuronidase inhibitors” (PLoS ONE, 2018).

This experiment addresses T1, β-glucuronidase enzyme (Escherichia coli, UniProt P05804).
T1 construct: purchased Sigma Aldrich G7396-25KU
The experiment can be described thus: β-Glucuronidase inhibition assay (spectrophotometric, p-nitrophenyl-β-D-glucuronide). The class given is biochemical. On the procedure:
β-Glucuronidase inhibitory activity was determined with the help of spectrophotometric method by measuring the absorbance at 405 nm of p-nitrophenol formed from the substrate (p-nitrophenyl-β-D-glucuronide, N1627-250 mg, Sigma Aldrich). The total reaction volume was 250 μL. The compound dissolved in DMSO (100%), which becomes 2% in the ultimate assay (250 μL) and the similar conditions were used for standard (D-saccharic acid 1, 4-lactone, Sigma Aldrich). The reaction mixture contained 185 μL of 0.1 M acetate buffer, 5 μL of test compound solution, 10 μL of (1U) enzyme solution (G7396-25KU, Sigma Aldrich) was incubated at 37°C for 30 min. The plates were read on a multiplate reader (SpectraMax plus 384) at 405 nm after the addition of 50 μL of 0.4 mM p-nitrophenyl-β-D-glucuronide. All assays were performed in triplicate. IC50values were calculated by using EZ-Fit software (Perrella Scientific Inc., Amherst, MA, U.S.A.). These values are the mean of three independent readings^ [23]

T1 sequence (P05804 whole entry): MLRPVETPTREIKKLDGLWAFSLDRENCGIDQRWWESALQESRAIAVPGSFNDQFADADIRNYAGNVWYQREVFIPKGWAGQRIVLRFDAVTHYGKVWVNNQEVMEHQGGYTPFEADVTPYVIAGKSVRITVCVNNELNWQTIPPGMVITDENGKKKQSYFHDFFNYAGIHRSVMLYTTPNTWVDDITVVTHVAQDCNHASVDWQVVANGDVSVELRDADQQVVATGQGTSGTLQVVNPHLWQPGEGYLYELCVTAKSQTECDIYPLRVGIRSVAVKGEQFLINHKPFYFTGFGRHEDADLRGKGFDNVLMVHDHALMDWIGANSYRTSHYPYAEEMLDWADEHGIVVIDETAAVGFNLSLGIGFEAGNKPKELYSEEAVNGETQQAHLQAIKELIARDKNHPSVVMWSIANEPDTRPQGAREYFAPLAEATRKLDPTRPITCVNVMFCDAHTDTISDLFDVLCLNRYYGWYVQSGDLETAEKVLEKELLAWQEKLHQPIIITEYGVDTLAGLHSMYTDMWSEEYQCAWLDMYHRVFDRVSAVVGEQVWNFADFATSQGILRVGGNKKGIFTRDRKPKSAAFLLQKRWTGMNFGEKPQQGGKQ

With `O=C1OC(C(O)C(=O)O)C(O)C1O` [D-saccharic acid 1,4-lactone], under “Conc. 200 μM”, the “% Inhibition” value came out at 89.4%. Moreover, the IC50 (β-glucuronidase inhibition, mean of three readings, read-out: IC50 μM±SEM) was determined as 45.8 ± 2.16 µM.
